The target of one data set is T1, CYP1A2 (Homo sapiens, UniProt P05177).
T1 construct: tissue Cyprotex Discovery Limited; host or cells: human liver microsomes
T1 sequence (P05177 1-516): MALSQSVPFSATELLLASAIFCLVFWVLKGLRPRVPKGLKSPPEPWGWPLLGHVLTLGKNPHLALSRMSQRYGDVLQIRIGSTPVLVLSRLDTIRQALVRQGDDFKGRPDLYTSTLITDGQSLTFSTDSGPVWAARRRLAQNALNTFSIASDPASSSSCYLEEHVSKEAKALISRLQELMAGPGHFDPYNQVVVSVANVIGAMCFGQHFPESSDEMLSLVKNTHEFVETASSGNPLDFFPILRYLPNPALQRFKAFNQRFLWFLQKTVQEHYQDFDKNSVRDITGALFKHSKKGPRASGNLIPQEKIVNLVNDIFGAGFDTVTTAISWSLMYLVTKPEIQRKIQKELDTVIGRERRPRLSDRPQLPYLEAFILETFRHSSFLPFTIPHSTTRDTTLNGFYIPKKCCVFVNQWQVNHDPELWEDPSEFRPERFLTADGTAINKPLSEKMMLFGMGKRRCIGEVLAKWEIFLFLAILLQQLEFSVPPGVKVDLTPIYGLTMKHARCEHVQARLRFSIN
In words: Cytochrome P450 inhibition, CYP1A2. Format: in vitro ADME. The following applies: human liver microsomes; read-out: CYP450 isoform 1A2 IC50. On the procedure: (§1) Testing was performed by Cyprotex Discovery Limited, Cheshire, UK. Six test compound concentrations (0.4, 1, 4, 10, 40 and 100 μM; final DMSO concentration 0.25%, final microsome concentration 0.25 mg·mL^−1) were either pre‐incubated for 30 min in the absence and presence of NADPH or underwent a 0 min pre‐incubation with human liver microsomes. At the end of the pre‐incubation period, the probe substrate for each cytochrome P450 (CYP450) isoform (30 μM) and NADPH (1 mM) were then added (final DMSO concentration 0.3%), and the samples were incubated for 5 min at 37°C. Probe substrates were as follows: 1A2 – phenacetin, 2C9 – diclofenac, 2C19 – mephenytoin, 2D6 – dextromethorphan, 3A4 – midazolam and testosterone. Samples were subjected to LC–MS/MS analysis to determine metabolite concentrations. A decrease in the formation of the metabolite compared with vehicle control was used to calculate an IC50 value (test compound concentration which produces 50% inhibition) for each experimental condition.
On the technique in general: Liver microsomes are vesicles of endoplasmic reticulum, rich in cytochrome P450 enzymes.

Another data set concerns CYP450 enzymes. In words: Time-dependent cytochrome P450 inhibition. The format is in vitro ADME, human. The note with it: 30 min pre-incubation ± NADPH; in words. On the procedure: as §1
Data set [1] in a line: Clinical safety and tolerability in healthy subjects. Format: in vivo, human. How it is done: A double‐blind, randomized, placebo‐controlled single ascending dose study was carried out at Simbec Research Ltd, Merthyr Tydfil, UK. Each cohort consisted of six healthy male subjects and two females of non‐child bearing potential. Two male ‘dose leader’ subjects (1 active : 1 placebo) were dosed first in each cohort. The remainder of the cohort (5 active : 1 placebo) were dosed 24 h later. Dose cohorts were 2, 5, 10, 18, 25 and 35 mg. Safety, pharmacokinetic and pharmacodynamic assessments were made at pre‐determined time‐points during each part of the study. Dose escalation was dependent upon satisfactory review of the blinded safety (up to Day 6) and pharmacokinetic (up to 24 h post‐dose) data from the preceding cohort.
A double‐blind, randomized, placebo‐controlled multiple ascending dose study was carried out at Linear Clinical Research Ltd, Nedlands, Australia. Each cohort consisted of eight healthy male subjects. Each subject received UE2343 or placebo twice daily (b.i.d ) (12 hourly) in the fed state for 9 days (Day 1 to Day 9) and once on the morning of Day 10 (19 doses in total). Dose cohorts were 10, 20 and 35 mg. Dose escalation and selection was dependent upon satisfactory review of the blinded safety (up to Day 17 ± 2) and plasma pharmacokinetics (up to Day 12) data from the preceding cohort. Safety, pharmacokinetic and pharmacodynamic assessments were made at pre‐determined time‐points during each part of the study.
A non‐randomized, open label, multiple dose phase I study to determine the pharmacokinetic parameters of UE2343 in CSF was carried out at Linear Clinical Research Ltd, Nedlands, Australia. Four healthy male subjects each received 35 mg UE2343 b.i.d (12 hourly) fed (30 min after the start of a standard meal) for 3 days (Day 1 to Day 3) and once on the morning of Day 4 (seven doses in total). Plasma pharmacokinetic samples were taken from each subject on Day 1 and Day 4. A single CSF sample was taken from each subject at 5 h post‐final dose on Day 4, corresponding to the plasma Tmax (time to maximum plasma concentration).
Laboratory evaluation of clinical safety parameters was carried out using standard validated methods. Measurement of plasma pharmacodynamic markers [adrenocorticotropic hormone (ACTH), cortisol, 4‐androstenedione, testosterone and dehydroepiandrosterone sulphate (DHEA‐s)] was carried out using commercially available kits. Each method was fully validated prior to analysis. Urinary steroid metabolites were measured according to established methods (Boonen et al., 2013). UE2343 levels in plasma, urine and CSF was determined by LC–MS/MS using fully validated methods.

Where [2] appears, read: multiple ascending dose study, 24 subjects (active and placebo).
[3] abbreviates: multiple ascending dose study, in words.

Structures are written as SMILES.

The term IC50 denotes the point on the concentration scale where inhibition reaches its midpoint. Turning to `O=C(c1csc(-c2cn[nH]c2)c1)N1C2CCC1CC(O)(c1ncccn1)C2` (centres unmarked) [compound 4], the IC50 at CYP1A2 is more than 50 µM. The “time‐dependent inhibition of CYP450 enzymes” value with CYP450 enzymes is listed as “No time‐dependent inhibition”. In addition, in data set [1] (2 to 35 mg q.d and 10 to 35 mg b.i.d, in words), the safety and tolerability entry was “safe and well tolerated”. The “intensity of TEAEs” value in data set [1] (CSF study, 35 mg b.i.d, in words) is reported as “mild to moderate”. Moreover, the “increased alanine aminotransferase, subjects” value in data set [1] (CSF study, four subjects, in words) is on record as “a single subject”. In data set [1] (setting [2]), the “diarrhoea, subjects” value is given as 2/24; the “headache (most common TEAE), subjects” value is on record as 7/24; the “thrombophlebitis, subjects” value was 3/24. In data set [1] (setting [3]), the “intensity of TEAEs” value is “mild or moderate” and the “serious TEAEs or TEAEs leading to withdrawal” value was “No serious TEAEs”. Also, the “number of subjects with ≥1 TEAEs” value in data set [1] (single ascending dose study) is recorded as 9.
